Assays:
Test in all cases: relative viability (nuclei count vs DMSO), 5 days (fraction); higher = more cells survive
[1] = compound: CN(C)C[C@@H]1CCn2cc(c3ccccc32)C2=C(C(=O)NC2=O)c2cn(c3ccccc23)CCO1 [Ruboxistaurin] + CC(=O)Nc1cccc(-n2c(=O)n(C3CC3)c(=O)c3c(Nc4ccc(I)cc4F)n(C)c(=O)c(C)c32)c1 [Trametinib] (partner 0.02 µM)
Method in brief: (§1)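 Five library-drug doses in √10 steps were combined with a fixed anchor-drug dose, or a single drug was given alone, by pin tool to lung cancer cell lines in 1536-well plates the day after seeding. Nuclei were stained and counted after 5 days. Relative viability is the nuclei count in treated wells over that in vehicle wells, taken as the median of duplicate plates.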

[2] = compound: CN(C)C[C@@H]1CCn2cc(c3ccccc32)C2=C(C(=O)NC2=O)c2cn(c3ccccc23)CCO1 [Ruboxistaurin] + CC1(C)CCC(c2ccc(Cl)cc2)=C(CN2CCN(c3ccc(C(=O)NS(=O)(=O)c4ccc(N[C@H](CCN5CCOCC5)CSc5ccccc5)c(S(=O)(=O)C(F)(F)F)c4)cc3)CC2)C1 [Navitoclax] (partner 0.5 µM)
Method in brief: as §1

[3] = compound: CN(C)C[C@@H]1CCn2cc(c3ccccc32)C2=C(C(=O)NC2=O)c2cn(c3ccccc23)CCO1 [Ruboxistaurin] + CCNC(=O)c1noc(-c2cc(C(C)C)c(O)cc2O)c1-c1ccc(CN2CCOCC2)cc1 [Luminespib] (partner 0.01 µM)
Method in brief: as §1

Ruboxistaurin + AZD7762 = compound: CN(C)C[C@@H]1CCn2cc(c3ccccc32)C2=C(C(=O)NC2=O)c2cn(c3ccccc23)CCO1 [Ruboxistaurin] + NC(=O)Nc1cc(-c2cccc(F)c2)sc1C(=O)N[C@H]1CCCNC1 [AZD7762] (partner 0.2 µM)
Method in brief: as §1

[4] = compound: CN(C)C[C@@H]1CCn2cc(c3ccccc32)C2=C(C(=O)NC2=O)c2cn(c3ccccc23)CCO1 [Ruboxistaurin] + Nc1ncn([C@H]2C[C@H](O)[C@@H](CO)O2)c(=O)n1 [Decitabine] (partner 2 µM)
Method in brief: as §1

Cell Line | relative viability ([1]; first compound 0.08 µM) | relative viability ([1]; first compound 0.8 µM) | relative viability ([1]; first compound 2.53 µM) | relative viability ([1]; first compound 8 µM) | relative viability ([2]; first compound 0.08 µM) | relative viability ([2]; first compound 0.8 µM) | relative viability ([2]; first compound 2.53 µM) | relative viability ([2]; first compound 8 µM) | relative viability ([3]; first compound 0.08 µM) | relative viability ([3]; first compound 0.8 µM) | relative viability ([3]; first compound 2.53 µM) | relative viability ([3]; first compound 8 µM) | relative viability (Ruboxistaurin + AZD7762; first compound 0.08 µM) | relative viability (Ruboxistaurin + AZD7762; first compound 0.8 µM) | relative viability (Ruboxistaurin + AZD7762; first compound 2.53 µM) | relative viability (Ruboxistaurin + AZD7762; first compound 8 µM) | relative viability ([4]; first compound 0.08 µM) | relative viability ([4]; first compound 0.8 µM) | relative viability ([4]; first compound 2.53 µM) | relative viability ([4]; first compound 8 µM)
201T | 0.739 | 0.705 | 0.764 | 0.747 | 1.21 | 1.18 | 1.24 | 1.25 | 1.09 | 1.01 | 1.09 | 1 | 0.539 | 0.549 | 0.581 | 0.641 | 0.858 | 0.834 | 0.824 | 0.914
A-427 | 0.88 | 0.692 | 0.752 | 0.548 | 0.947 | 0.816 | 0.831 | 0.752 | 0.974 | 0.757 | 0.869 | 0.611 | 0.849 | 0.639 | 0.709 | 0.516 | 0.605 | 0.527 | 0.564 | 0.548
BEN | 1.07 | 0.976 | 1.01 | 0.895 | 0.0424 | 0.0646 | 0.0707 | 0.114 | 0.418 | 0.391 | 0.384 | 0.179 | 0.833 | 0.668 | 0.639 | 0.509 | 0.815 | 0.698 | 0.724 | 0.549
CAL-12T | 0.303 | 0.347 | 0.323 | 0.399 | 1.22 | 1.28 | 1.31 | 1.26 | 0.399 | 0.472 | 0.362 | 0.544 | 0.691 | 0.661 | 0.748 | 0.65 |  |  |  | 
ChaGo-K-1 | 0.972 | 0.814 | 0.941 | 0.956 | 1.38 | 1.08 | 0.925 | 0.703 | 0.63 | 0.558 | 0.76 | 0.529 | 0.86 | 0.856 | 0.908 | 0.911 | 0.592 | 0.487 | 0.53 | 0.535
EKVX | 0.359 | 0.287 | 0.336 | 0.281 | 0.981 | 0.903 | 1.03 | 0.882 | 0.945 | 0.843 | 0.919 | 0.926 | 0.607 | 0.623 | 0.649 | 0.656 | 0.334 | 0.246 | 0.34 | 0.426
EMC-BAC-2 | 0.94 | 0.841 | 0.775 | 0.721 | 1.28 | 1.08 | 1.11 | 1.05 | 1.23 | 1.12 | 0.991 | 0.925 | 1.12 | 1.05 | 1.11 | 0.891 | 0.968 | 0.949 | 0.979 | 0.842
EPLC-272H | 0.347 | 0.228 | 0.27 | 0.257 | 1.28 | 0.96 | 1.41 | 1.18 | 0.368 | 0.224 | 0.293 | 0.668 | 0.263 | 0.108 | 0.276 | 0.0372 | 0.473 | 0.289 | 0.354 | 0.341
H3255 | 0.635 | 0.479 | 0.644 | 0.536 | 0.548 | 0.438 | 0.519 | 0.478 | 1.02 | 0.726 | 0.957 | 0.865 | 1.05 | 0.984 | 0.924 | 0.97 | 0.608 | 0.54 | 0.603 | 0.538
HARA | 0.674 | 0.636 | 0.653 | 0.684 | 1.2 | 1.16 | 1.14 | 1.14 | 0.612 | 0.495 | 0.837 | 0.601 | 0.346 | 0.525 | 0.339 | 0.336 | 0.502 | 0.496 | 0.567 | 0.592
HCC-15 | 0.401 | 0.388 | 0.409 | 0.417 | 0.724 | 0.64 | 0.71 | 0.62 | 0.278 | 0.329 | 0.32 | 0.716 | 1.25 | 1.2 | 1.13 | 1.25 | 0.699 | 0.576 | 0.666 | 0.685
HCC-44 | 1.02 | 1 | 1.06 | 1.21 | 1.05 | 0.883 | 1.02 | 0.971 | 1.16 | 0.973 | 1.06 | 1.09 | 1.02 | 1.01 | 1.02 | 1.07 | 0.974 | 0.882 | 1.01 | 1.02
HCC-78 | 0.886 | 0.711 | 0.738 | 0.912 | 0.802 | 0.686 | 0.812 | 0.793 |  |  |  |  | 0.735 | 0.549 | 0.715 | 0.536 | 0.636 | 0.663 | 0.756 | 0.635
HCC-366 | 0.393 | 0.331 | 0.349 | 0.321 | 1.05 | 0.81 | 1.16 | 0.995 |  |  |  |  | 0.187 | 0.284 | 0.27 | 0.178 | 0.361 | 0.351 | 0.325 | 0.317
HCC-827 | 0.555 | 0.499 | 0.517 | 0.533 | 1.05 | 1.05 | 1.01 | 1.04 | 0.748 | 0.708 | 0.627 | 0.612 | 0.26 | 0.199 | 0.239 | 0.201 | 0.349 | 0.344 | 0.376 | 0.319
HOP-62 | 0.401 | 0.33 | 0.361 | 0.361 | 1.15 | 1 | 1.12 | 1.35 | 0.964 | 0.892 | 0.989 | 1.01 | 0.779 | 0.694 | 0.875 | 0.894 | 0.21 | 0.242 | 0.251 | 0.268

Source: the supplement of paper PMC10307832
